Patent US5624668A (Luitpold Pharmaceuticals, Inc., priority 1995, dated 1997)

Legend:
[1] = test system: hemoglobin or ferritin-related stores; conditions: given in early stage of iron deficiency (ferritin below 100 ug/L or transferrin saturation below 20%)
[2] = test system: hemoglobin or ferritin-related stores; conditions: cited from earlier work

iron dextran
hemoglobin response [1]: without a concomitant increase in hemoglobin | serum ferritin response [1]: rise in serum ferritin | quantitative iron utilization for hemoglobin or ferritin-related stores ([2]; dialysis-associated anemia, within the first 90 days after infusion, previous retrospective analysis): highly variable and incomplete within the first 90 days | recovery of iron for hemoglobin synthesis or iron stores ([2]; iron deficiency anemia and normal renal function, early after intravenous infusion): incomplete
